Reference: patent US6358946B1, “C-6 ring-substituted pyrido[1,2-a]benzimidazole derivatives useful in treating central nervous system disorders” (Ortho-McNeil Pharmaceutical, Inc., priority 1999, dated 2002)
Structures can show the parent of a compound that is named as a salt. Where two headings read alike, the source gives them in different places.

What was measured:
[1] = system: metrazol-induced clonic convulsions; assay: Suppression of metrazol-induced convulsions in adult male mice; assay type: in vivo, Male CD1 mice; conditions: Mus musculus, block of clonic convulsions after s.c. CD90 dose of metrazol
Description: Assay to Determine the Suppression of Metrazol-Induced Convulsions in Adult Male Mice
Compounds of the invention were tested for their ability to reduce metrazol-induced convulsions in mice (Swinyard, E. A. J. Am. Pharm Assoc. 1949, 38, 201). Male CD1 mice, were fasted at least 16 hours, were divided into equal groups and test compounds or vehicle were administered parenterally. Water was not withheld except during the period of observations. At the time of suspected peak activity, anti-pentylenetetrazol (anti-metrazol) activity was evaluated by the subcutaneous administration of the CD90 dose of metrazol (the dose of metrazol was determined from the dose-response curve producing clonic convulsions in 90% of animals that received the corresponding vehicle for this experiment). Metrazol was dissolved in 0.9% sodium chloride solution, and its dose volume was 10 mL/kg. Animals were housed individually for observation of clonic convulsions, tonic convulsions and death for a period of 30 min. Test compounds that blocked the clonic seizure component of the convulsion in at least 50% of the animals were considered active. The biological assay was considered to be valid if the effects of a known anticonvulsant (positive control) were detected, within the same experiment. Activity was reported as percent reduction of clonic convulsions from the vehicle group. The ED50 values of active compounds were calculated by the method of probits (Finney, D. J. Probit Analysis, London: 1971, Cambridge University Press) and are listed in Table 1. […] Compounds active in this screen are considered active anticonvulsion/antiepileptic agents, as well as having potential anxiolytic activity. The data for the test compounds is listed in Table 1 as Met. for either PO (oral) or IP (parenteral) routes of administration.

[2] = biological target: benzodiazepine site of the GABA-A receptor; assay: Benzodiazepine receptor binding assay (inhibition of 3H-flunitrazepam binding to membranes); conditions: inhibition of 3H-flunitrazepam (ca. 3 nM) binding; over 10,000 = not active
[3] = system: behavior suppressed by punishment (conflict); assay: Suppression of anxiety in the adult male rat (Vogel conflict test); assay type: in vivo, Male rats; conditions: PO (oral) administration, MED >10 = active dose not determined, read-out: Conf. PO (minimum effective dose, MED)
Description: Assay to Measure the Suppression of Anxiety in the Adult Male Rat
The anxiolytic activity of selected compounds of the invention was assessed by determining their ability to release (disinhibit) behavior that had been suppressed by punishment (Vogel, J. R. et al. Psychopharmacology 1971, 21, 1). Male rats were deprived of water for 48 hrs and were deprived of food for 24 hrs prior to testing. After the first 24 hours of water deprivation, they were placed in the conflict chamber for a training period; wherein, they were allowed 200 unpunished licks from a bottle containing tap water. The experiment was run the next day. At the expected time of peak activity, the animals were placed in the chamber and allowed access to tap water. […] Their first lick initiates a 3-min test session. Subsequently, every 20th lick was punished by a 0.2-s shock delivered via the stainless-steel drinking-tube. Vehicle-treated control animals generally were willing to accept a median number of 3 to 8 shocks per test session. […] The Wilcoxon rank-sum test (Mann-Whitney U-test) was used to test for an increase (p<0.05, 1-tailed) in the median number of shocks in drug-treated groups, compared to a concurrently run vehicle-treated group. The biological assay is considered to be valid if the effects of a known anxiolytic (positive control) are detected, within the same experiment. A compound was considered active if there is a significant difference in the median number of shocks tolerated between the drug-treated group and the control group. The minimum effective doses (MED) for the active compounds of the invention are listed in Table 1 under the heading Conf., with PO indicating an oral route of administration. The MED was defined as the minimum dose of the drug-treatment as analyzed using the Wilcoxon rank-sum test (SAS; Statistical Analysis System, version 5.16). If the MED value is greater than 10, an active dose of the compound being tested had not been determined.

[4] = IP (parenteral) administration, read-out: Met. IP (ED50)
[5] = PO (oral) administration, read-out: Met. PO (ED50)

SMILES	melting point [°C]	ED50 [1, 4] [mg/kg]	ED50 [1, 5] [mg/kg]	IC50 [2] [nM]	minimal effective dose [3] [mg/kg]
O=C1CCN2C(=C1C(=O)Nc1c(F)cccc1F)Nc1c(N3CCCCC3)cccc12 (as salt: hydrochloride) [Compound 10, Pyrido[1,2-a]benzimidazole-4-carboxamide, N-(2,6-difluorophenyl)-1,2,3,5-tetrahydro-3-oxo-6-(1-piperidinyl)-]	240 to 241	–	–	–	–
O=C1CCN2C(=C1C(=O)Nc1c(F)cccc1F)Nc1c2cccc1-n1ccnc1 [Compound 1]	–	≤ 1	~10	0.66	–
O=C1CCN2C(=C1C(=O)Nc1ccccc1F)Nc1c2cccc1-n1ccnc1 [Compound 2, Pyrido[1,2-a]benzimidazole-4-carboxamide, N-2-fluorophenyl-1,2,3,5-tetrahydro-3-oxo-6-(1-imidazolyl)-]	–	1	~5	3.48	> 10
O=C1CCN2C(=C1C(=O)Nc1ccccc1F)Nc1c(N3CCOCC3)cccc12 [Compound 3]	–	> 1	3	1.05	> 10
O=C1CCN2C(=C1C(=O)Nc1c(F)cccc1F)Nc1c(N3CCOCC3)cccc12 [Compound 4]	–	< 1	< 3	0.23	~0.1
COc1ccccc1N1CCN(c2cccc3c2NC2=C(C(=O)Nc4c(F)cccc4F)C(=O)CCN23)CC1 [Compound 5]	–	–	–	< 100	> 10
COc1ccccc1N1CCN(c2cccc3c2NC2=C(C(=O)Nc4ccccc4F)C(=O)CCN23)CC1 [Compound 6]	–	–	–	~1000	> 10
COc1ccc(NC(=O)C2=C3Nc4c(N5CCOCC5)cccc4N3CCC2=O)cc1 [Compound 7]	–	–	–	2.04	0.1
COc1cccc(NC(=O)C2=C3Nc4c(N5CCOCC5)cccc4N3CCC2=O)c1 [Compound 8]	–	–	–	2.4	> 10
O=C1CCN2C(=C1C(=O)Nc1ccccc1F)Nc1c(N3CCCCC3)cccc12 [Compound 9]	–	–	–	69.5	≤ 3
O=C1CCN2C(=C1C(=O)Nc1c(F)cccc1F)Nc1c(N3CCCCC3)cccc12 [Compound 10, Pyrido[1,2-a]benzimidazole-4-carboxamide, N-(2,6-difluorophenyl)-1,2,3,5-tetrahydro-3-oxo-6-(1-piperidinyl)-]	–	–	3.64	0.41	3
COc1ccc(NC(=O)C2=C3Nc4c(N5CCCCC5)cccc4N3CCC2=O)cc1 [Compound 11]	–	–	–	34.8	> 3
CN1C2=C(C(=O)Nc3ccccc3F)C(=O)CCN2c2cccc(N3CCOCC3)c21 [Compound 12]	–	–	–	0.15	–
CN1C2=C(C(=O)Nc3ccccc3F)C(=O)CCN2c2cccc(-n3ccnc3)c21 [Compound 13, Pyrido[1,2-a]benzimidazole-4-carboxamide, N-2-fluorophenyl-1,2,3-trihydro-3-oxo5-methyl-6-(1-imidazolyl)-]	–	–	–	0.13	> 3
O=C1CCN2C(=C1C(=O)Nc1ccccc1F)Nc1c(N3CCSCC3)cccc12 [Compound 14]	–	–	–	8.43	~3
CN1C2=C(C(=O)Nc3ccccc3F)C(=O)CCN2c2cccc(N3CCSCC3)c21 [Compound 15]	–	–	–	0.23	1
CN1C2=C(C(=O)Nc3nccs3)C(=O)CCN2c2cccc(-n3ccnc3)c21 [Compound 16]	–	–	–	2.12	> 3
O=C1CCN2C(=C1C(=O)Nc1nccs1)Nc1c2cccc1-n1ccnc1 [Compound 17]	–	–	–	160	> 3
CN1C2=C(C(=O)Nc3ccccc3F)C(=O)CCN2c2cccc(N3CCCCC3)c21 [Compound 18]	–	–	0.65	0.22	0.03 to 0.1
O=C1CCN2C(=C1C(=O)Nc1ccccc1F)Nc1c(N3CCC4(CC3)OCCO4)cccc12 [Compound 20, Pyrido[1,2-a]benzimidazole-4-carboxamide, N-2-fluorophenyl-1,2,3,5-tetrahydro-3-oxo-6-[8-(1,4-dioxa-8-azaspiro[4,5]decanyl)]-]	–	–	0.83	1.11	3
CN1C2=C(C(=O)Nc3ccccc3F)C(=O)CCN2c2cccc(N3CCC4(CC3)OCCO4)c21 [Compound 21, Pyrido[1,2-a]benzimidazole-4-carboxamide, N-2-fluorophenyl-1,2,3-trihydro-3-oxo-5-methyl-6-[8-(1,4-dioxa-8-azaspiro[4,6]decanyl)]-]	–	–	–	0.13	≤ 0.3
COCC(=O)N1CCN(c2cccc3c2N(C)C2=C(C(=O)Nc4ccccc4F)C(=O)CCN23)CC1 [Compound 22, Pyrido[1,2-a]benzimidazole-4-carboxamide, N-2-fluorophenyl-1,2,3-trihydro-3-oxo-5-methyl-6-[4-(2-methoxyacetyl)-1-piperazinyl]-]	–	–	–	0.24	> 3
O=C1CCN(c2cccc3c2NC2=C(C(=O)Nc4ccccc4F)C(=O)CCN23)CC1 [Compound 23]	–	–	–	–	≤ 3
